Experimental findings from patent US10961309B2, “Reducing systemic regulatory T cell levels or activity for treatment of disease and injury of the CNS” (Yeda Research and Development Co. Ltd, priority 2014, dated 2021) are described below.

“Also recorded” adds a separate entry of the source.

The subject of test [1] is splenocytes (CD4+Foxp3+ Tregs, CD4+ IFN-γ+ T cells). In words: Flow cytometry of splenocytes. It is filed as in vivo, mouse. Here is the method: Mice were transcardially perfused with PBS, and tissues were treated as previously described (Baruch et al, 2013). Brains were dissected and the different brain regions were removed under a dissecting microscope (Stemi DV4; Zeiss) in PBS, and tissues were dissociated using the gentleMACS™ dissociator (Miltenyi Biotec). Choroid plexus tissues were isolated from the lateral, third and fourth ventricles of the brain, incubated at 37° C. for 45 min in PBS (with Ca^2+/Mg^2+) containing 400 U/ml collagenase type IV (Worthington Biochemical Corporation), and then manually homogenized by pipetting. Spleens were mashed with the plunger of a syringe and treated with ACK (ammonium chloride potassium) lysing buffer to remove erythrocytes. In all cases, samples were stained according to the manufacturers' protocols. All samples were filtered through a 70 μm nylon mesh, and blocked with anti-Fc CD16/32 (1:100; BD Biosciences). For intracellular staining of IFN-γ, the cells were incubated with […] (10 ng/ml; Sigma-Aldrich) and ionomycin (250 ng/ml; Sigma-Aldrich) for 6 h, and Brefeldin-A (10 μg/ml; Sigma-Aldrich) was added for the last 4 h. Intracellular labeling of cytokines was done with BD Cytofix/Cytoperm™ Plus fixation/permeabilization kit (cat. no. 555028). For Treg staining, an eBioscience FoxP3 staining buffer set (cat. no. 00-5523-00) was used. The following fluorochrome-labeled monoclonal antibodies were purchased from BD Pharmingen, BioLegend, R&D Systems, or eBiosciences, and used according to the manufacturers' protocols: PE or Alexa Fluor 450-conjugated anti-CD4; PE-conjugated anti-CD25; PerCP-Cy5.5-conjugated anti-CD45; FITC-conjugated anti-TCRβ; APC-conjugated anti-IFN-γ; APC-conjugated anti-FoxP3; Brilliant-violet-conjugated anti-CD45. Cells were analyzed on an LSRII cytometer (BD Biosciences) using FlowJo software. In each experiment, relevant negative control groups, positive controls, and single stained samples for each tissue were used to identify the populations of interest and to exclude other populations.
A general note: Flow cytometry measures light scatter and fluorescence of single cells or particles in a stream.

The subject of another test is 5XFAD AD-Tg mice. The experiment in a line: Radial arm water maze (RAWM). It counts as in vivo, mouse. How it is done:
The radial-arm water maze (RAWM) was used to test spatial learning and memory, as was previously described in detail (Alamed et al, 2006). Briefly, six stainless steel inserts were placed in the tank, forming six swim arms radiating from an open central area. The escape platform was located at the end of one arm (the goal arm), 1.5 cm below the water surface, in a pool 1.1 m in diameter. The water temperature was kept between 21-22° C. Water was made opaque with milk powder. Within the testing room, only distal visual shape and object cues were available to the mice to aid in location of the submerged platform. The goal arm location remained constant for a given mouse. On day 1, mice were trained for 15 trials (spaced over 3 h), with trials alternating between a visible and hidden platform, and the last 4 trails with hidden platform only. On day 2, mice were trained for 15 trials with the hidden platform. Entry into an incorrect arm, or failure to select an arm within 15 sec, was scored as an error. Spatial learning and memory were measured by counting the number of arm entry errors or the escape latency of the mice on each trial. Training data were analyzed as the mean errors or escape latency, for training blocks of three consecutive trials.
At 10 months of age, 5XFAD Alzheimer's' disease (AD) transgenic (Tg) mice were injected i.p. with either 250 ug of anti-PD1 (RMP1-14; #BE0146; Bioxcell Lifesciences Pvt. LTD.) or control IgG (IgG2a; #BE0089; Bioxcell Lifesciences Pvt. LTD.) antibodies, on day 1 and day 4 of the experiment, and were examined 3 weeks after (schematically depicted in FIG. 11A) for their cognitive performance by radial arm water maze (RAWM) spatial learning and memory task, as was previously described in detail (Alamed et al, 2006). Briefly, on day 1 of the RAWM task, mice were trained for 15 trials (spaced over 3 h), with trials alternating between a visible and hidden platform, and the last 4 trails with hidden platform only. On day 2, mice were trained for 15 trials with the hidden platform. Entry into an incorrect arm, or failure to select an arm within 15 sec, was scored as an error. Spatial learning and memory were measured by counting the number of arm entry errors or the escape latency of the mice on each trial. Age matched untreated WT and AD-Tg mice were used as controls.

In the case of Glatiramer acetate [GA], in test [1] (weekly-GA, 5XFAD AD-Tg mice, end of 1st week of regimen), the “splenocyte Foxp3+ Treg levels” value was “reduced”. The “cognitive performance (spatial memory) by the RAWM task” value in the test with 5XFAD AD-Tg mice (daily-GA 100 μg s.c. for 1 month, 7-month old 5XFAD AD-Tg mice) is listed as “either no beneficial effect on spatial memory, or a tendency towards a worsening effect”. In the test with 5XFAD AD-Tg mice (weekly-GA, 5XFAD AD-Tg mice), the “duration of improved cognitive performance after the treatment” value is recorded as “up to 2 months”. Further, the “cognitive performance by the RAWM task” value in the test with 5XFAD AD-Tg mice (weekly-GA, 7-month old 5XFAD AD-Tg mice) is “beneficial effect”.
For the compound `CC1=C(/C=C/C(C)=C/C=C/C(C)=C/C(=O)O)C(C)(C)CCC1` [ATRA, All-trans retinoic acid], the “splenocyte frequencies of Foxp3+CD25+ Tregs” value in test [1] (ATRA 8 mg/kg/d i.p. every other day 1 week vs vehicle (DMSO), 5-month 5XFAD AD-Tg mice) is “significantly higher; also recorded: elevation”. In addition, the “cognitive performance (spatial memory) in the RAWM” value in the test with 5XFAD AD-Tg mice (ATRA-treated vs vehicle-treated AD-Tg mice, 3 weeks after treatment) is given as “worsening of the spatial memory deficits”.
